Patent US12655116B2, “Substituted isophthalic acid diamides” (Bayer Aktiengesellschaft, priority 2020, dated 2026)

Experiments:
ABUTH [1] = assay: Pre-emergence herbicidal action against ABUTH; format: in vivo, Abutilon theophrasti
How it was run: (§1)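 Sandy loam pots, seeds covered with soil, then surface-treated with WP or EC formulations at 600–800 l/ha water plus 0.2% wetting agent. Greenhouse, 3 weeks. Percent damage vs untreated controls.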

ALOMY [2] = assay: Pre-emergence herbicidal action against ALOMY; format: in vivo, Alopecurus myosuroides
How it was run: as §1

AMARE [3] = assay: Pre-emergence herbicidal action against AMARE; format: in vivo, Amaranthus retroflexus
How it was run: as §1

ECHCG [4] = assay: Pre-emergence herbicidal action against ECHCG; format: in vivo, Echinochloa crus-galli; details: 80 g/ha
How it was run: as §1

MATIN [5] = assay: Pre-emergence herbicidal action against MATIN; format: in vivo, Matricaria inodora
How it was run: as §1

PHBPU [6] = assay: Pre-emergence herbicidal action against PHBPU; format: in vivo, Pharbitis purpurea; details: dosage 80 g/ha
How it was run: as §1

POLCO [7] = assay: Pre-emergence herbicidal action against POLCO; format: in vivo, Polygonum convolvulus; details: dosage 80 g/ha
How it was run: as §1

SETVI [8] = assay: Pre-emergence herbicidal action against SETVI; format: in vivo, Setaria viridis
How it was run: as §1

VERPE [9] = assay: Pre-emergence herbicidal action against VERPE; format: in vivo, Veronica persica; details: dosage 80 g/ha
How it was run: as §1

VIOTR [10] = assay: Pre-emergence herbicidal action against VIOTR; format: in vivo, Viola tricolor
How it was run: as §1

DIGSA = assay: Pre-emergence herbicidal action against DIGSA; format: in vivo, Digitaria sanguinalis
How it was run: as §1

ABUTH [11] = assay: Post-emergence herbicidal action against ABUTH; format: in vivo, Abutilon theophrasti; details: visual assessment about 3 weeks after treatment vs untreated controls
How it was run: (§2)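 Herbicidal action is a visual percentage rating (0% = as untreated control, 100% = plants dead) made roughly 3 weeks after treatment. Plants were grown in sandy loam in the greenhouse and treated at the one-leaf stage, 2 to 3 weeks post-sowing. Treatment was a foliar spray of wettable-powder or emulsion-concentrate formulations at 600 to 800 l/ha water plus 0.2% wetting agent.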

ECHCG [12] = assay: Post-emergence herbicidal action against ECHCG; format: in vivo, Echinochloa crus-galli
How it was run: as §2

MATIN [13] = assay: Post-emergence herbicidal action against MATIN; format: in vivo, Matricaria inodora
How it was run: as §2

PHBPU [14] = assay: Post-emergence herbicidal action against PHBPU; format: in vivo, Pharbitis purpurea; details: dosage 20 g/ha
How it was run: as §2

POLCO [15] = assay: Post-emergence herbicidal action against POLCO; format: in vivo, Polygonum convolvulus; details: dosage 20 g/ha
Procedure: Seeds of monocotyledonous and dicotyledonous weed and crop plants are laid out in sandy loam soil in wood-fiber pots, covered with soil and cultivated in a greenhouse under good growth conditions. 2 to 3 weeks after sowing, the test plants are treated at the one-leaf stage. The compounds of the invention, formulated in the form of wettable powders (WP) or as emulsion concentrates (EC), are then sprayed onto the green parts of the plants in the form of an aqueous suspension or emulsion at a water application rate equivalent to 600 to 800 l/ha, with addition of 0.2% wetting agent. After the test plants have been left to stand in the greenhouse under optimal growth conditions for about 3 weeks, the action of the preparations is assessed visually in comparison to untreated controls (herbicidal action in percent (%): 100% activity=the plants have died, 0% activity=like control plants). […] The tables below illustrate, in an illustrative manner, the post-emergence herbicidal action of the compounds of the invention, the herbicidal activity being stated in percent.

SETVI [16] = assay: Post-emergence herbicidal action against SETVI; format: in vivo, Setaria viridis
How it was run: as §2

VERPE [17] = assay: Post-emergence herbicidal action against VERPE; format: in vivo, Veronica persica
How it was run: as §2

VIOTR [18] = assay: Post-emergence herbicidal action against VIOTR; format: in vivo, Viola tricolor
How it was run: as §2

AVEFA = assay: Pre-emergence herbicidal action against AVEFA; format: in vivo, Avena fatua; details: 80 g/ha, pre-emergence
How it was run: as §1

ALOMY [19] = assay: Post-emergence herbicidal action against ALOMY; format: in vivo, Alopecurus myosuroides; details: dosage 20 g/ha, visual assessment about 3 weeks after treatment vs untreated controls
How it was run: as §2

AMARE [20] = assay: Post-emergence herbicidal action against AMARE; format: in vivo, Amaranthus retroflexus; details: 20 g/ha, visual assessment about 3 weeks after treatment, 100% = plants have died, 0% = like control plants
How it was run: as §2

[21] = Tripleurospermum inodorum, 504 h, dosage 20 g/ha
[22] = Setaria viridis, 504 h, dosage 20 g/ha
[23] = 80 g/ha, scored visually after 3 weeks vs untreated controls (100% = plants have died, 0% = like control plants)
[24] = dosage 20 g/ha, scored visually after 3 weeks vs untreated controls, 100% = plants have died, 0% = like control plants
[25] = 20 g/ha, scored visually after 3 weeks vs untreated controls, 100% = plants have died, 0% = like control plants

COc1c(C(=O)Nc2nnnn2C)ccc(C(F)F)c1C(=O)NC1CC1 [Example 1-74]
100%: pest or weed control at 80 g/ha (ABUTH [1]; Abutilon theophrasti, 504 h, 80 g/ha, scored visually after 3 weeks vs untreated controls (100% = plants have died, 0% = like control plants)) | pest or weed control at 20 g/ha (ABUTH [1]; Abutilon theophrasti, 504 h, dosage 20 g/ha, scored visually after 3 weeks vs untreated controls, 100% = plants have died, 0% = like control plants, read-out: Pre-emergence action against ABUTH (herbicidal activity in percent)) | pest or weed control at 20 g/ha (AMARE [3]; Amaranthus retroflexus, 504 h, 20 g/ha, scored visually after 3 weeks vs untreated controls, 100% = plants have died, 0% = like control plants) | pest or weed control at 80 g/ha (AMARE [3]; Amaranthus retroflexus, 504 h, 80 g/ha, scored visually after 3 weeks vs untreated controls, 100% = plants have died, 0% = like control plants) | pest or weed control at 80 g/ha (ECHCG [4]; Echinochloa crus-galli, 504 h) | pest or weed control at 20 g/ha (MATIN [5]; [21]) | pest or weed control at 80 g/ha (MATIN [5]; Tripleurospermum inodorum, 504 h, dosage 80 g/ha) | pest or weed control at 80 g/ha (PHBPU [6]; Ipomoea purpurea, 504 h) | pest or weed control at 20 g/ha (SETVI [8]; [22]) | pest or weed control at 80 g/ha (SETVI [8]; Setaria viridis, 504 h, dosage 80 g/ha) | pest or weed control at 80 g/ha (VERPE [9]; Veronica persica, 504 h) | pest or weed control at 20 g/ha (VIOTR [10]; Viola tricolor, 504 h, dosage 20 g/ha) | pest or weed control at 80 g/ha (VIOTR [10]; Viola tricolor, 504 h, dosage 80 g/ha) | pest or weed control at 20 g/ha (DIGSA; Digitaria sanguinalis, 504 h, dosage 20 g/ha) | pest or weed control at 80 g/ha (DIGSA; Digitaria sanguinalis, 504 h, dosage 80 g/ha) | pest or weed control at 20 g/ha (SETVI [16]; [22])
80%: pest or weed control at 80 g/ha (POLCO [7]; Fallopia convolvulus, 504 h) | pest or weed control at 5 g/ha (ABUTH [11]; Abutilon theophrasti, 504 h, dosage 5 g/ha) | pest or weed control at 20 g/ha (ABUTH [11]; Abutilon theophrasti, 504 h, dosage 20 g/ha) | pest or weed control at 5 g/ha (ECHCG [12]; Echinochloa crus-galli, 504 h, dosage 5 g/ha) | pest or weed control at 20 g/ha (ECHCG [12]; Echinochloa crus-galli, 504 h, dosage 20 g/ha) | pest or weed control at 5 g/ha (MATIN [13]; Tripleurospermum inodorum, 504 h, dosage 5 g/ha) | pest or weed control at 20 g/ha (POLCO [15]; Fallopia convolvulus, 504 h) | pest or weed control at 5 g/ha (VERPE [17]; Veronica persica, 504 h, 5 g/ha) | pest or weed control at 5 g/ha (VIOTR [18]; Viola tricolor, 504 h, 5 g/ha)
90%: pest or weed control at 80 g/ha (ALOMY [2]; Alopecurus myosuroides, 504 h, 80 g/ha, pre-emergence, scored visually after 3 weeks vs untreated controls (100% = plants have died, 0% = like control plants)) | pest or weed control at 20 g/ha (MATIN [13]; [21]) | pest or weed control at 20 g/ha (PHBPU [14]; Ipomoea purpurea, 504 h) | pest or weed control at 20 g/ha (VERPE [17]; Veronica persica, 504 h, 20 g/ha) | pest or weed control at 20 g/ha (VIOTR [18]; Viola tricolor, 504 h, 20 g/ha)

CCn1nnnc1NC(=O)c1ccc(Br)c(C(=O)NCC2CC2)c1Cl [Example 2-180]
100%: Pre-emergence action against ABUTH (herbicidal activity) (ABUTH [1]; [23]) | Pre-emergence action against ABUTH (herbicidal activity in percent) (ABUTH [1]; [24]) | Pre-emergence action against ALOMY (herbicidal activity) (ALOMY [2]; 80 g/ha, pre-emergence, scored visually after 3 weeks vs untreated controls (100% = plants have died, 0% = like control plants)) | Pre-emergence action against AMARE in % (AMARE [3]; [25]) | Pre-emergence action against AMARE in % (AMARE [3]; [23]) | Pre-emergence action against ECHCG in % (ECHCG [4]) | Pre-emergence action against MATIN in % (MATIN [5]; dosage 20 g/ha) | Pre-emergence action against MATIN in % (MATIN [5]; dosage 80 g/ha) | Pre-emergence action against PHBPU in % (PHBPU [6]) | Pre-emergence action against SETVI in % (SETVI [8]; dosage 80 g/ha) | Pre-emergence action against VIOTR in % (VIOTR [10]; dosage 20 g/ha) | Pre-emergence action against VIOTR in % (VIOTR [10]; dosage 80 g/ha) | Pre-emergence action against DIGSA in % (DIGSA; dosage 20 g/ha) | Pre-emergence action against DIGSA in % (DIGSA; dosage 80 g/ha) | Post-emergence action against POLCO in % (POLCO [15]) | Post-emergence action against VIOTR in % (VIOTR [18]; 20 g/ha)
80%: Pre-emergence action against ALOMY (ALOMY [2]; 20 g/ha, scored visually after 3 weeks, 100% = plants have died, 0% = like control plants) | Pre-emergence action against AVEFA in % (AVEFA) | Post-emergence action against MATIN in % (MATIN [13]; dosage 20 g/ha)
90%: Pre-emergence action against POLCO in % (POLCO [7]) | Post-emergence action against ALOMY in % (ALOMY [19]) | Post-emergence action against ECHCG in % (ECHCG [12]; dosage 20 g/ha) | Post-emergence action against PHBPU in % (PHBPU [14]) | Post-emergence action against SETVI in % (SETVI [16]; dosage 20 g/ha)

CCn1nnnc1NC(=O)c1ccc(C(F)F)c(C(=O)NC)c1C1CC1 [Example 2-304]
90%: Pre-emergence action against ECHCG in % (ECHCG [4]) | Pre-emergence action against MATIN in % (MATIN [5]; dosage 20 g/ha) | Pre-emergence action against PHBPU in % (PHBPU [6]) | Pre-emergence action against SETVI in % (SETVI [8]; dosage 80 g/ha) | Pre-emergence action against VIOTR in % (VIOTR [10]; dosage 20 g/ha) | Pre-emergence action against DIGSA in % (DIGSA; dosage 20 g/ha) | Post-emergence action against ABUTH in % (ABUTH [11]; dosage 5 g/ha) | Post-emergence action against ABUTH in % (ABUTH [11]; dosage 20 g/ha) | Post-emergence action against MATIN in % (MATIN [13]; dosage 5 g/ha) | Post-emergence action against MATIN in % (MATIN [13]; dosage 20 g/ha) | Post-emergence action against PHBPU in % (PHBPU [14]) | Post-emergence action against VERPE in % (VERPE [17]; 20 g/ha) | Post-emergence action against VIOTR in % (VIOTR [18]; 20 g/ha)
80%: Pre-emergence action against POLCO in % (POLCO [7]) | Post-emergence action against ECHCG in % (ECHCG [12]; dosage 20 g/ha) | Post-emergence action against POLCO in % (POLCO [15]) | Post-emergence action against SETVI in % (SETVI [16]; dosage 5 g/ha) | Post-emergence action against SETVI in % (SETVI [16]; dosage 20 g/ha) | Post-emergence action against VIOTR in % (VIOTR [18]; 5 g/ha)
100%: Pre-emergence action against ABUTH (herbicidal activity) (ABUTH [1]; [23]) | Pre-emergence action against ABUTH (herbicidal activity in percent) (ABUTH [1]; [24]) | Pre-emergence action against AMARE in % (AMARE [3]; [25]) | Pre-emergence action against AMARE in % (AMARE [3]; [23]) | Pre-emergence action against MATIN in % (MATIN [5]; dosage 80 g/ha) | Pre-emergence action against VERPE in % (VERPE [9]) | Pre-emergence action against VIOTR in % (VIOTR [10]; dosage 80 g/ha) | Pre-emergence action against DIGSA in % (DIGSA; dosage 80 g/ha) | Post-emergence action at 20 g/ha against AMARE in % (AMARE [20])
